# Experimental data from ChEMBL document CHEMBL1201862, “PubChem BioAssay data set” (2004).
#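 Interpolation was linear, between the two tested concentrations surrounding the appropriate level; five concentrations were tested over 48 hours in 96-well plates. Here, GI50 denotes the concentration required for 50% inhibition of growth.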 Activity calls are given as the source filed them. Cut-off read from the data, not from the text of the source: active = GI50 up to about 1.1 µM and inactive = higher.
# How the values were obtained:
# Experiment in all cases: inhibition of tumour cell growth, NCI panel, 48 h
# COLO 205 = tested on: COLO 205
# SK-OV-3 = tested on: SK-OV-3
# SF-268 = tested on: SF-268
# HOP-92 = tested on: HOP-92
# PC-3 = tested on: PC-3
# U-251 = tested on: U-251
# T47D = tested on: T47D
# HOP-62 = tested on: HOP-62
# NCI-H460 = tested on: NCI-H460
# HT-29 = tested on: HT-29
# OVCAR-8 = tested on: OVCAR-8
# SW-620 = tested on: SW-620
# IGROV-1 = tested on: IGROV-1
# DU-145 = tested on: DU-145
# NCI/ADR-RES = tested on: NCI/ADR-RES
# RXF 393 = tested on: RXF 393
# M14 = tested on: M14
# MDA-MB-231 = tested on: MDA-MB-231
# SNB-19 = tested on: SNB-19
# Hs-578T = tested on: Hs-578T
# KM12 = tested on: KM12
# MDA-MB-435 = tested on: MDA-MB-435
# SR = tested on: SR
# NCI-H522 = tested on: NCI-H522
# A498 = tested on: A498
# EKVX = tested on: EKVX
# HCT-15 = tested on: HCT-15
# ACHN = tested on: ACHN
# LOX IMVI = tested on: LOX IMVI
# A549 = tested on: A549
# HL-60 = tested on: HL-60
# OVCAR-5 = tested on: OVCAR-5
# UO-31 = tested on: UO-31
# NCI-H226 = tested on: NCI-H226
# OVCAR-3 = tested on: OVCAR-3
# MCF7 = tested on: MCF7
# NCI-H23 = tested on: NCI-H23
# Malme-3M = tested on: Malme-3M
# TK-10 = tested on: TK-10
# OVCAR-4 = tested on: OVCAR-4
# CAKI-1 = tested on: CAKI-1
# SK-MEL-5 = tested on: SK-MEL-5
# SF-295 = tested on: SF-295
# UACC-257 = tested on: UACC-257
# CCRF-CEM = tested on: CCRF-CEM
# UACC-62 = tested on: UACC-62
# BT-549 = tested on: BT-549
# SK-MEL-28 = tested on: SK-MEL-28
# K562 = tested on: K562
# HCC 2998 = tested on: HCC 2998
# MDA-N = tested on: MDA-N
# 786-0 = tested on: 786-0
# SNB-75 = tested on: SNB-75
# HCT-116 = tested on: HCT-116
# MOLT-4 = tested on: MOLT-4
# SN12C = tested on: SN12C
smiles,measurement,setting,value
c1ccc(C(Oc2noc3ccccc23)c2ccccc2)cc1,GI50,COLO 205,16.9 µM (inactive)
same,GI50,SK-OV-3,57 µM (inactive)
same,GI50,SF-268,65.8 µM (inactive)
same,GI50,HOP-92,35.6 µM (inactive)
same,GI50,PC-3,34.4 µM (inactive)
same,GI50,U-251,31.7 µM (inactive)
same,GI50,T47D,3.64 µM (inactive)
same,GI50,HOP-62,88.5 µM (inactive)
same,GI50,NCI-H460,29.2 µM (inactive)
same,GI50,HT-29,36.7 µM (inactive)
same,GI50,OVCAR-8,45.3 µM (inactive)
same,GI50,SW-620,30.8 µM (inactive)
same,GI50,IGROV-1,49.9 µM (inactive)
same,GI50,DU-145,34 µM (inactive)
same,GI50,NCI/ADR-RES,30.8 µM (inactive)
same,GI50,RXF 393,14.9 µM (inactive)
same,GI50,M14,25.2 µM (inactive)
same,GI50,MDA-MB-231,36.2 µM (inactive)
same,GI50,SNB-19,46 µM (inactive)
same,GI50,Hs-578T,66.4 µM (inactive)
same,GI50,KM12,29.1 µM (inactive)
same,GI50,MDA-MB-435,20.3 µM (inactive)
same,GI50,SR,13.2 µM (inactive)
same,GI50,NCI-H522,26.1 µM (inactive)
same,GI50,A498,39 µM (inactive)
same,GI50,EKVX,40.9 µM (inactive)
same,GI50,HCT-15,31.3 µM
same,GI50,ACHN,51.3 µM (inactive)
same,GI50,LOX IMVI,38.7 µM (inactive)
same,GI50,A549,39.5 µM (inactive)
same,GI50,HL-60,23.4 µM (inactive)
same,GI50,OVCAR-5,51.4 µM (inactive)
same,GI50,UO-31,39.5 µM (inactive)
same,GI50,NCI-H226,50.2 µM (inactive)
same,GI50,OVCAR-3,35.2 µM (inactive)
same,GI50,MCF7,37.3 µM (inactive)
same,GI50,NCI-H23,41.7 µM (inactive)
same,GI50,Malme-3M,67.5 µM (inactive)
same,GI50,TK-10,47.6 µM (inactive)
same,GI50,OVCAR-4,22.2 µM (inactive)
same,GI50,CAKI-1,62.2 µM (inactive)
same,GI50,SK-MEL-5,18.7 µM (inactive)
same,GI50,SF-295,33 µM (inactive)
same,GI50,UACC-257,29.5 µM (inactive)
same,GI50,CCRF-CEM,15.9 µM (inactive)
same,GI50,UACC-62,31.8 µM (inactive)
same,GI50,BT-549,32.1 µM (inactive)
same,GI50,SK-MEL-28,65.5 µM (inactive)
same,GI50,K562,23.8 µM (inactive)
same,GI50,HCC 2998,21.7 µM (inactive)
same,GI50,MDA-N,19.9 µM (inactive)
same,GI50,786-0,48.8 µM (inactive)
same,GI50,SNB-75,12.6 µM (inactive)
same,GI50,HCT-116,25.9 µM (inactive)
same,GI50,MOLT-4,14.8 µM (inactive)
same,GI50,SN12C,35.7 µM (inactive)
